# Experimental data reported in patent EP2886531B1, “Aspartic acid derivatives” (Merck Patent GmbH, priority 2013, dated 2015).
# How the values were obtained:
# [1] = Prolonged DBU treatment of VKDNYI peptide resin (aspartimide formation); assay type: physicochemical
# Protocol: (§1) Automated peptide synthesis, piperidine treatments of the resin samples and final TFA cleavages are performed as described in the protocols of example 4. In addition, 50 mg peptide resin samples are treated with a solution of DBU/piperidine/DMF (1:19:79) over 225 minutes to investigate the aspartimide formation at harsher Fmoc deprotection conditions often used for complete Fmoc removals in aggregation prone sequences.
# (§2) The resulting peptide samples are analysied and all relevant impurities identified by UPLC-MS analysis (Xevo Waters Q-TOF-1, lock mass = 556.277 (leu-enkephaline), LC-conditions: CHS 18 1,7 µm (100x2.1 mm) at 40°C; water acetonitrile gradient of 5% to 35 % B over 10 min where buffer A is 0.1 % formic acid in water and buffer B is 0.1 % formic acid in acetonitrile, flow 0.6 ml/min).
# In table 3 the amounts of by-products formed after prolonged DBU treatments are summarized for all side-chain protections used in this invention. […] Since the DBU mediated Fmoc removals are much quicker than the piperidine mediated, this experiment again represents a Fmoc SPPS assembly of an 100mer after introducing the aspartic acid residue using exclusively DBU for Fmoc cleavage. Table 3: Results after 110 Fmoc removal cycles using DBU, target peptide = VKDNYI, the aspartimide (Asu) derived by-products are the aspartimide itself and the sum of piperidides
# [2] = Prolonged piperidine treatment at 60°C of VKDRYI peptide resin (aspartimide formation); assay type: physicochemical
# Protocol: (§3) Automated peptide synthesis, piperidine treatments of the resin samples and final TFA cleavages are performed as described in the protocols of example 4. In addition, to evaluate the advantage of the protecting groups used in this invention in heat accelerated SPPS we treat 50 mg peptide resin samples with a solution of 20% piperidine in DMF at 60°C over 200 minutes. Microwave assisted peptide synthesis conditions are often used to shorten peptide synthesis times and increase coupling reaction and Fmoc deprotection.
# The application of microwave heating to SPPS is accelerating coupling and deprotection reactions leading to shorter cycle times, higher repetitive yields, and ultimately purer peptides. On the other hand, microwave energy can also lead to increased levels of aspartimide by-products. To overcome that drawback we evaluated the advantage of the side-chain protections used in this invention by exposing the peptide resins to Fmoc removal cycles at 60 degrees Celsius.
# In table 5 the amounts of by-products formed after the prolonged exposure of the peptide resins to piperidine at 60 degree Celsius (100 Fmoc removal cycles) are summarized for all side-chain protections used in this invention. […] Table 5: Results after 100 Fmoc removal cycles using piperidine at 60°C, target peptide sequence = VKDRYI, the aspartimide (Asu) derived by-products are the aspartimide itself and the sum of piperidides
# [3] = Prolonged treatment of VKDGYI peptide resin with 1 M Oxyma Pure and 20 % piperidine (aspartimide formation); assay type: physicochemical
# Protocol: [drawing 14] 50 mg samples of the corresponding aspartic acid derivatives of example 4 are treated over 18 hours with a solution of 1 M Oxyma Pure and 20 % piperidine in dimethylformamide. The peptides are cleaved off the resin with 95 % TFA and analysed with HPLC as well as MS to identify all aspartimide related products (conditions see example 4). The results are summarized in table 6: Table 6: Results after 110 Fmoc removal cycles using an acidic modifier in the piperidine mediated Fmoc removal cocktails, target peptide = VKDG YI, the aspartimide derived by-products are the aspartimide itself and the sum of piperidides
# [4] = Prolonged piperidine treatment of VKDNYI peptide resin (aspartimide formation, Asp-Asn motif); assay type: physicochemical
# Protocol: as §1, §2
# In table 2 the amounts of by-products formed after the prolonged exposure of the peptide resins to piperidine (110 Fmoc removal cycles) are summarized for all side-chain protections used in this invention. […] Table 2: Results after 110 Fmoc removal cycles using piperidine, target peptide = VKDNYI, the aspartimide (Asu) derived by products are the aspartimide itself and the sum of piperidides
# [5] = Prolonged piperidine treatment of VKDRYI peptide resin (aspartimide formation, Asp-Arg motif); assay type: physicochemical
# Protocol: as §3
# In table 4 the amounts of by-products formed after the prolonged exposure of the peptide resins to piperidine (110 Fmoc removal cycles) are summarized for all side-chain protections used in this invention. Table 4: Results after 110 Fmoc removal cycles using piperidine, target peptide sequence = VKDRYI, the aspartimide (Asu) derived by-products are the aspartimide itself and the sum of piperidides
# [6] = Prolonged piperidine treatment of VKDGYI peptide resin (aspartimide formation, Asp-Gly motif)
# [7] = VKDNYI, DBU/piperidine/DMF (1:19:79), 225 minutes
# [8] = VKDRYI, 20% piperidine in DMF at 60°C, 200 minutes
# [9] = VKDGYI, 1 M Oxyma Pure in 20 % piperidine
# [10] = VKDNYI, piperidine, 110 Fmoc removal cycles
# [11] = VKDRYI, 110 Fmoc removal cycles
smiles,measurement,setting,value
"CCCC(CCC)(CCC)OC(=O)C[C@H](NC(=O)OCC1c2ccccc2-c2ccccc21)C(=O)O [Php, (2S)-N-((9H-fluoren-9-ylmethyloxy)carbonyl)aspartic acid-4-(4-(n-propyl)hept-4-yl) ester]",Half-life in cycles,[1],192 cycles
same,Asu per 2' cycle,"[1]; VKDNYI, DBU",0.4
same,D/L-Asu [%],[1]; [7],3.3%
same,piperides [%],[1]; [7],25.7%
same,target [%],"[1]; target peptide VKDNYI, DBU/piperidine/DMF (1:19:79) over 225 minutes, 110 Fmoc removal cycles",71.0%
same,Half-life in cycles,[2],532 cycles
same,D/L-Asu [%],[2]; [8],7.1%
same,piperidides [%],[2]; [8],5.1%
same,Asu per 10' cycle,"[2]; VKDRYI, piperidine at 60°C",0.1
same,target [%],"[2]; target peptide VKDRYI, 20% piperidine in DMF at 60°C over 200 minutes, 100 Fmoc removal cycles",87.8%
same,aspartimide side reaction,"[3]; Asp-Gly sequence, Fmoc removal solution of 1 M Oxyma Pure in piperidine/DMF 1:4",nearly inhibits the apartimide side reaction
same,aspartimide derived by-products per Fmoc removal,[3]; [9],0.05%
same,half-life,[3]; [9],greater than 1500 cycles
same,Asu per 10' cycle,"[3]; VKDGYI, Oxyma Pure +",0.04
same,Asu [%],"[3]; VKDGYI, Oxyma Pure +, 18 hours",1.3%
same,piperidides [%],"[3]; VKDGYI, Oxyma Pure +, 18 hours",3.3%
same,target [%],"[3]; VKDGYI, Oxyma Pure +: 1 M Oxyma Pure and 20 % piperidine in dimethylformamide, 18 hours",95.4%
same,Half-life in cycles,[4],800 cycles
same,Asu per 10' cycle,"[4]; VKDNYI, piperidine",0.09
same,D/L-Asu [%],[4]; [10],1.0%
same,piperidides [%],[4]; [10],8.2%
same,target [%],"[4]; target peptide VKDNYI, piperidine, 110 Fmoc removal cycles",90.8%
same,Asu per 10' cycle,[5]; VKDRYI,0.08
same,Half-life in cycles,[5]; VKDRYI,845 cycles
same,D/L-Asu [%],[5]; [11],3.2%
same,piperidides [%],[5]; [11],5.5%
same,target [%],"[5]; target peptide VKDRYI, 110 Fmoc removal cycles",91.3%
same,"half-life of the target peptide increased, in respect of Mpe","[6]; VKDGYI, Asp-Gly sequence, relative to Mpe protection",4 fold
same,"half-life of the target peptide increased, instead of tBu","[6]; VKDGYI, Asp-Gly sequence, relative to tBu protection",more than 10 fold
same,Asu per 10' cycle [%],"[6]; VKDGYI, 20 % piperidine in dimethylformamide",0.2%
same,Asu [%],"[6]; VKDGYI, 20 % piperidine in dimethylformamide, 18 hours, aspartimide",2.9%
same,piperidides [%],"[6]; VKDGYI, 20 % piperidine in dimethylformamide, 18 hours, sum of piperidides",16.5%
same,Asu [%],"[6]; VKDGYI, Oxyma Pure -",2.9%
same,Asu per 10' cycle,"[6]; VKDGYI, Oxyma Pure -",0.2
same,piperidides [%],"[6]; VKDGYI, Oxyma Pure -",16.5%
same,target [%],"[6]; VKDGYI, Oxyma Pure -: 20 % piperidine only, 18 hours (as Table 1)",80.6%
same,target [%],"[6]; target peptide VKDGYI, 20 % piperidine in dimethylformamide over 18 hours, 110 Fmoc removal cycles",80.6%
